Assay: solubility of the analyte in chloroform (step i of Procedure 1, crystalline sponge method)
Format: physicochemical
Experimental: Procedure 1—absorption of an organic molecule into a single porous crystal. Specifically, procedure 1 describes absorption of an organic molecule into a crystalline sponge comprising [(ZnCl2)3(tpt)2.(cyclohexane)x] (tpt=1,3,5-tris(4-pyridyl)triazine. The organic molecule is first dissolved in trichloro methane (chloroform), i.e., the sample comprises the organic molecule in trichloro methane. The procedure comprises the steps: • i—1 mg of organic molecule is dissolved in 1 ml of chloroform at room temperature. (Proportionally lower quantities can be used, depending on the available amount of analyte.) • ii—A single crystal of [(ZnCl2)3(tpt)2.(cyclohexane)x] (tpt=1,3,5-tris(4-pyridyl)triazine) crystal sponge of about 100 μm diameter, which has been visually inspected under a microscope and found to be without twinning or visible cracks, is placed in a septum screw-top glass vial with conically pointed bottom, submerged in 50 μl of cyclohexane. • iii—4.5 μl of the solution obtained in step (i) (containing 4.5 μg of analyte) is added to the crystalline sponge in cyclohexane as described in step (ii). • iv—The screw-top is closed, and the septum is pierced with a medical-type syringe needle, which may be left in that position to enable slow solvent evaporation. This assembly is incubated at 50° C. for 24 or more hours. […]

| SMILES | amount of analyte that could be dissolved in 1 ml chloroform (20° C.) | solution of analyte in chloroform that could be prepared without difficulty (Procedure 1 step i (room temperature)) [mg in 1 ml] |
| --- | --- | --- |
| O=c1c(-c2ccc(O)cc2)coc2cc(O)ccc12 [4′,7-dihydroxy isoflavone] | about 0.005 mg in 1 ml |  |
| COc1ccc(-c2coc3cc(OC)ccc3c2=O)cc1 [4′,7-dimethoxy isoflavone] |  | ≥ 1 |
